Patent publication US12458630B2, “Combination therapy for cancer” (The Regents of the University of California, priority 2020, dated 2025)
“Also recorded” adds a separate entry of the source.

How the values were obtained:
MIA PaCa-2 cells = assay: TMR-DEX macropinosome uptake assay; assay type: cell-based, human
Protocol: Cell imaging. Immunostaining was performed as described^44. Cells were cultured on coverslips and fixed in 4% PFA for 10 min at room temperature. After washing twice in PBS, cells were incubated in PBS containing 10% FBS to block nonspecific sites of antibody adsorption. The cells were then incubated with the appropriate primary antibodies (diluted 1:100) and secondary antibodies (diluted 1:500) in PBS containing 10% FBS with or without 0.1% saponin. For cell macropinosome visualization, 24 hrs after seeding, the cells were serum starved for 18 hrs. Macropinosomes were marked using a high-molecular-mass (70 KD) TMR-Dextran (Invitrogen)-uptake assay, wherein TMR-DEX was added to serum-free medium at a final concentration of 1 mg/ml for 30 min at 37° C. At the end of the incubation period, the cells were rinsed five times in cold PBS and immediately fixed in 4% PFA. For tissue macropinosome visualization^45, fresh pancreata were cut into pieces with an approximate 5-mm cuboidal shape. A tissue section was placed in a 24-well plate and injected 150 μL of 10 mg/ml TMR-DEX solution directly into the tissue piece. Another 250 μL of diluted TMR-DEX solution were added to the well to immerse the tissue section. The plate was incubated in the dark for 15 min at room temperature. Then the tissue section was rinsed twice in PBS before embedding in O.C.T. compound in a prelabeled cryomold. Specimens were frozen on dry ice and stored at −80° C. for further processing. Immunostaining was performed as described above. Images were captured using a TCS SPE Leica confocal microscope (Leica, Germany).
In some embodiments, Immunostaining was performed as described (Su et al., 2017). Cells were cultured on coverslips and fixed in 4% PFA for 10 min at room temperature or methanol for 10 min at −20° C. After washing twice in PBS, cells were incubated in PBS containing 10% FBS to block nonspecific sites of antibody adsorption. The cells were then incubated with the appropriate primary antibodies (diluted 1:100) and secondary antibodies (diluted 1:500) in PBS containing 10% FBS with or without 0.1% saponin. For cell macropinosome visualization, 24 hrs after seeding, the cells were serum starved for 18 hrs. Macropinosomes were marked using a high-molecular-mass (70 KDa) TMR-DEX (Invitrogen)-uptake assay, wherein TMR-DEX was added to serum-free medium at a final concentration of 1 mg/ml for 30 min at 37° C. At the end of the incubation period, the cells were rinsed five times in cold PBS and immediately fixed in 4% PFA. For tissue macropinosome visualization (Lee et al., 2019), fresh pancreata were cut into pieces with an approximate 5-mm cuboidal shape. Tissue fragments were placed in a 24-well plate and injected with 150 μL of 10 mg/ml TMR-DEX solution. Another 250 μL of diluted TMR-DEX solution were added to the well to immerse the tissue fragment. The plate was incubated in the dark for 15 min at room temperature. Then the tissue fragments were rinsed twice in PBS before embedding in O.C.T. compound in a prelabeled cryomold. Specimens were frozen on dry ice and stored at −80° C. for further processing. Immunostaining was performed as described above. Images were captured using a TCS SPE Leica confocal microscope (Leica, Germany).
Quantification and statistics. To quantify the number of LC3 puncta, a total of 30 cells were recorded and analyzed using the LAS X measurement program on the TCS SPE Leica. Macropinosomes were quantified by using the ‘Analyze Particles’ feature in ImageJ (National Institutes of Health). Macropinocytic uptake index was computed by determining the total macropinosome area in relation to the total cell area for each field and then by determining the average across all the fields (at least 6 fields). These measurements were done on randomly-selected fields of view. Two-tailed unpaired Student's t test was performed for statistical analysis using GraphPad Prism software. […]

human PDAC 1444 tumors = assay: s.c. tumors in nude mice; assay type: in vivo, mouse; conditions: EIPA 7.5 mg/kg, MRT68921 10 mg/kg, 15 days
Protocol: (§1) In some embodiments, to evaluate the effects of MP on tumor growth or survival in the autochthonous model, Kras^G12D;Ikkα^ΔPEC mice, at 4 weeks of age, were treated with vehicle or 10 mg/kg EIPA (Sigma) by i.p. injection every other day for 1 month. After that, surgically removed pancreata were weighed and used for further analysis and other mice were continued to maintain for survival. To evaluate the effects of MP on heterotopic xenografts, female homozygous BALB/c Nu/Nu nude mice were injected subcutaneously (s.c.) in both flanks at 7 weeks of age with 10^6 parental and IKKα^Δ MIA PaCa-2 cells or 1334 and 1444 cells mixed at a 1:1 dilution with BD Matrigel (BD Biosciences) in a total volume of 100 μl. Mice were treated with vehicle (DMSO in PBS), EIPA (7.5 mg/kg), MRT68921 (10 mg/kg) or MRT68921 and EIPA for 15 days when tumors attained an average volume of 50-100 mm^3. Volumes (1/2×(width^2×length)) of s.c. tumors were calculated on the basis of measurements using digital calipers after 15 days of treatment. To evaluate the combination effects of autophagy and MP inhibition on tumor growth, C57BL/6 mice were injected s.c. at 7 weeks of age with 10^6 parental, Ikkα KD, Nhe1 KD or Ikkα+Nhe1 DKD KC6141 cells in a total volume of 100 μl. Mice were treated with or without vehicle, EIPA (7.5 mg/kg), MRT68921 (10 mg/kg), or EIPA and MRT68921 for 21 days when tumors attained an average volume of 50-100 mm^3. Tumor volumes were calculated as above.

human PDAC 1334 tumors = assay: s.c. tumors in nude mice; assay type: in vivo, mouse; conditions: EIPA 7.5 mg/kg, MRT68921 10 mg/kg, 15 days
Protocol: as §1

Structure (SMILES) | macropinosome formation (TMR-DEX labeling) (MIA PaCa-2 cells; parental and IKKα-KO (IKKα^Δ) MIA PaCa-2 cells, 75 μM EIPA) | tumor growth (human PDAC 1444 tumors) | tumor growth (human PDAC 1334 tumors) | relative macropinocytic uptake (macropinosomes) (MIA PaCa-2 cells; MIA PaCa-2 cells +/- MRT68921)
CCN(c1nc(N)c(C(=O)N=C(N)N)nc1Cl)C(C)C [EIPA, 5-(N-ethyl-N-isopropyl) amiloride] | blocks macropinosome formation; also recorded: inhibited; also recorded: suppressed | small effect | sensitive to EIPA | –
CN1CCc2cc(Nc3ncc(C4CC4)c(NCCCNC(=O)C4CCC4)n3)ccc2C1 [MRT68921] | – | small effect | insensitive to MRT68921 | more macropinosomes; also recorded: increased macropinosomes; also recorded: enhanced
